# From patent publication US8859783B2, “Indirubin-3′-oxime derivatives as potent cyclin dependent kinase inhibitors” (Anygen Co., Ltd., priority 2010, dated 2014)
# pIC50: −log10 of the molar value. Entries after “also recorded” stand apart in the source; their conditions may differ.
# Legend:
# CDK2/cyclin E = target: T1, CDK2/cyclin E (Homo sapiens, UniProt P24941); experiment: CDK2/cyclin E kinase assay; format: biochemical; details: ten concentrations, dose response curves; read-out: CDK2/cyclin E inhibitory activity IC50
# T1 construct: purchased Milipore (Billerica, Mass.)
# Method: CDK1/cyclin B, CDK2/cyclin E were purchased from Milipore (Billerica, Mass.). The kinase activity was tested in buffer (8 mM MOPS pH 7.0, 0.2 mM EDTA, 10 mM MgAcetate), with 0.1 mg/mL histone H1, in the presence of 45 µM [—^33P] ATP (500 cpm/pmol) for CDK1 or 120 μM [γ—^33P] ATP (500 cpm/pmol) for CDK2 in a final reaction volume of […]. The reaction was initiated by the addition of the MgATP mix. After incubation for 40 min at 30° C., the reaction was stopped by the addition of 5 μL of 3% phosphoric acid solution. 10 μL aliquots of supernatant were spotted onto 2.5 cm×3 cm pieces of Whatman […] phosphocellulose paper, and 20 s later, the filters were washed three times for 5 min in 75 mM phosphoric acid and once in methanol prior to drying. The […] filters were counted in the presence of 1 mL of ACS (Amersham) scintillation fluid. The activities are usually expressed as a percentage of the maximal activity, i.e., in the absence of inhibitors. Controls were applied with appropriate dilutions of DMSO.
# [1] = system: T2, c-Met, Met M1250T, Ron, VEGF2, EGFR, TrkA, PI3Kγ, IKKβ Insulin receptor, Aurora A; experiment: Kinase panel screening (HTRF); format: biochemical; details: 10 μM
# T2 construct: other: 10 μM
# Method: (§1) Inhibition of kinase activity against a variety of recombinant kinases (c-Met, Met M1250T, Ron, VEGF2, EGFR, TrkA, PI3Kγ, IKKβ Insulin receptor, Aurora A) was measured using homogeneous time-resolved fluorescence (HTRF) assays. Briefly, assays are based on the phosphorylation of peptide substrates in the presence of ATP. Resulting phosphorylated substrates are detected by TR-FRET (Time Resolved-Fluorescence Resonance Energy Transfer) signal. Recombinant proteins containing kinase domain were purchased from Millipore (Billerica, Mass.). Optimal enzyme, ATP, and substrate concentrations were established for each enzyme using HTRF KinEASE kit (Cisbio) according to the manufacturer's instruction. Assays are consisted of enzymes mixed with serially diluted compounds and peptide substrates in kinase reaction buffer (250 mM HEPES (pH 7.0), 0.5 mM orthovanadate, 0.05% BSA, 0.1% NaN3). Following the addition of reagents for detection, TR-FRET signal was measured using EnVision multi-label reader (Perkin Elmer, Waltham, Mass.).
# [2] = system: A549 human lung cancer cell; experiment: SRB cell proliferation assay, A549; format: cell-based; details: A549, 72 h, 3 days
# Method: (§2) ^a A series of indirubin derivatives were tested at five concentrations for their effects on various human cancer cell lines using SRB assay, as described in the Experimental Section.
# (§3) Cells (A549, HT1080, HCT116, K562, SNU638, KB, MCF-7) were counted, diluted to 5×10^4 cells/mL with fresh medium (MEME, DMEM or RPMI containing 10% FBS), and added 190 μL of cell suspension to 96-well plates containing various concentrations of test compounds (10 μL in 10% aqueous DMSO). Test plates were incubated for 3 days at 37° C. in CO2 incubator. For zero day controls, cells were incubated for 30 min at 37° C. in CO2 incubator. All treatments were performed in triplicate. After the incubation periods, cells were fixed with 50 μL of cold 50% TCA at 4° C. for 30 min, washed 5 times with tap water, and air-dried. The fixed cells were stained with 0.4% SRB solution in 1% aqueous acetic acid at room temperature for 1 h. Free SRB solution was then removed by rinsing 5 times with 1% acetic acid, and air-dried. The bound dye was dissolved with 200 µL of 10 mM Tris-base (pH 10.0), and absorbance was determined at 515 nm using an ELISA microplate reader. Finally, the absorbance values obtained with each of the treatment procedures were averaged, and the average values obtained with the zero day control were subtracted.
# [3] = system: HT1080 human fibro sarcoma cell; experiment: SRB cell proliferation assay, HT1080; format: cell-based; details: HT-1080, 72 h, 3 days
# Method: as §2, §3
# [4] = system: HCT116 human colon cancer cell; experiment: SRB cell proliferation assay, HCT116; format: cell-based; details: 3 days
# Method: as §2, §3
# K562 human leukemia cell = experiment: SRB cell proliferation assay, K562; format: cell-based; details: K562, 72 h, 3 days
# Method: as §2, §3
# [5] = system: SNU638 human stomach cancer cell; experiment: SRB cell proliferation assay, SNU638; format: cell-based; details: SNU-638, 72 h, 3 days
# Method: as §2, §3
# [6] = system: KB human nasopharyngeal cancer cell; experiment: SRB cell proliferation assay, KB; format: cell-based; details: 72 h, 3 days
# Method: as §2, §3
# [7] = system: MCF-7 human breast cancer cell; experiment: SRB cell proliferation assay, MCF-7; format: cell-based; details: MCF7, 72 h, 3 days
# Method: as §2, §3
# CDK1/cyclin B = CDK1/cyclin B (Homo sapiens, UniProt P06493); experiment: CDK1/cyclin B kinase assay; format: biochemical; details: read-out: IC50 in CDK1/cycline B kinase assay
# Chain of CDK1/cyclin B (P06493 whole entry): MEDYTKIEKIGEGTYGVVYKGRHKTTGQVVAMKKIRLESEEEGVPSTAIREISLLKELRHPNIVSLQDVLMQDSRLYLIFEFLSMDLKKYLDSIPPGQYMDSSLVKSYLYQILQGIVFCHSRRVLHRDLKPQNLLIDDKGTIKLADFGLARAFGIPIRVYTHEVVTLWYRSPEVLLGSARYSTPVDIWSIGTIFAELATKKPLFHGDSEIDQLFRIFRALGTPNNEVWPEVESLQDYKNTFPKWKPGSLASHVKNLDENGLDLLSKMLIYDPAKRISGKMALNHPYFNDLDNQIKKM
# Chain of CDK1/cyclin B (P14635 whole entry partner): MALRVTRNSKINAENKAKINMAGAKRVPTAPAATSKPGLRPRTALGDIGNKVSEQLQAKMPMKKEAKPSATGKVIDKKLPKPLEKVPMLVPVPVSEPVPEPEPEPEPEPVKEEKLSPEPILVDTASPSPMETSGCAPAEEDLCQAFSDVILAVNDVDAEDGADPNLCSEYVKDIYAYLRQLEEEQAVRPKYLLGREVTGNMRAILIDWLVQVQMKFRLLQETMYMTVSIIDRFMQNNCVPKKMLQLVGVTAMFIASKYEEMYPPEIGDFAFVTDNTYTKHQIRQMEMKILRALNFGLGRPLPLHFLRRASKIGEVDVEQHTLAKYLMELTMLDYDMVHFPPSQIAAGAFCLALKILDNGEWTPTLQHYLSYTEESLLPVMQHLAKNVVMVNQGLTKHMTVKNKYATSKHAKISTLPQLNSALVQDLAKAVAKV
# Text: The reaction was initiated by the addition of the MgATP mix.
# IKKβ = target: T3, IKKβ (Homo sapiens, UniProt O14920); experiment: HTRF kinase assay, IKKβ; format: biochemical; details: dose response curves; read-out: IC50 against IKKβ
# T3 construct: Recombinant proteins containing kinase domain were purchased from Millipore (Billerica, Mass.); purchased Millipore (Billerica, Mass.)
# T3 sequence (O14920 15-300 limits assumed): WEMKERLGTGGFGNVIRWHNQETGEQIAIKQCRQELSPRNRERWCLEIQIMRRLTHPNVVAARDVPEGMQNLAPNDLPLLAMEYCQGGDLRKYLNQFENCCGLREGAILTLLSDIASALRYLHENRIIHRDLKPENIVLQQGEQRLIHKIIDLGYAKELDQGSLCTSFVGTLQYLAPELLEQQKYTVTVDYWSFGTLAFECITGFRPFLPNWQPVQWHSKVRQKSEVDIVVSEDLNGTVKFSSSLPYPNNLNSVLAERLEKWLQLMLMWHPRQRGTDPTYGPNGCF
# Method: as §1
# TrkA = target: T4, TrkA (Homo sapiens, UniProt P04629); experiment: HTRF kinase assay, TrkA; format: biochemical
# T4 construct: Recombinant proteins containing kinase domain were purchased from Millipore (Billerica, Mass.); purchased Millipore (Billerica, Mass.)
# T4 sequence (P04629 510-781 limits assumed): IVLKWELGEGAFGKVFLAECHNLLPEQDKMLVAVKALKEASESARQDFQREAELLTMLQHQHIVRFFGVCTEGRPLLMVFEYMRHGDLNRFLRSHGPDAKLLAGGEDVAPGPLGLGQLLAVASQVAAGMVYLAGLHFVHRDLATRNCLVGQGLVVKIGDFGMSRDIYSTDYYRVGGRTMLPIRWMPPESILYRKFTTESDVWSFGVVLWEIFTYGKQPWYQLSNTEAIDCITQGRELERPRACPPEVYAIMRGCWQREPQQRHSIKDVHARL
# Method: as §1
# [8] = system: several human cancer cell lines; experiment: SRB cell proliferation assay, summary over cell lines; format: cell-based; details: Homo sapiens, range over cell lines; read-out: anti-proliferative IC50, range over cancer cell lines
# Method: as §2, §3
# [9] = Tumor xenograft animal model, body weight; format: in vivo, SD rats; details: 5 mg/kg i.v. every other day, five times
# Text: The k-ras-transformed rat kidney epithelial cell line (RK3E-ras) were maintained in DMEM supplemented with 10% FCS, 100 units/mL penicillin, and 100 Ag/mL streptomycin. RK3E-ras cells were kindly provided by Dr. Eric Fearon (University of Michigan Medical School, Ann Arbor, Mich.) and have been described in the previous report. Male SD rats (6 weeks of age) were used to examine the inhibition of tumor growth in vivo. RK3E-ras-Luc cells (5×10^6) were implanted subcutaneously into the flank of the rats on Day 0, and rats were grouped randomly (5 […]/group) on Day 5 as previously described. […] The animals were sacrificed 48 hr after the final administration, and rat weights and tumor volumes were measured. The tumor growth volumes were calculated as follows: V=(ab^2)/2, where, a is the longest diameter and b is the shortest diameter of the tumor. All experiments were conducted under protocols approved by the Animal Care and Use Committee at Chosun University School of Dentistry (Gwangju, South Korea).
# RK3E-ras-Luc cells [10] = experiment: In vivo bioluminescence imaging assay; parameters: species or system SD rats; details: day 10 after treatment, 5 mg/kg i.v.
# Text: For bioluminescence imaging, the rats received an i.p. injection of luciferin (Molecular Probes, Palo Alto, Calif.) with Rumpun/ketamine (1:1) anesthesia. The rats were imaged using a LAS-1000 plus imaging System (Fuji film. Tokyo. Japan) to record the bioluminescent signal emitted from the tumor. The LAS-1000 system equipped with a CCD camera was used for acquisition of the emitted light, and Living Image software (Multi Gauge v3.0) was used for data analysis.
# RK3E-ras-Luc cells [11] = experiment: Histology (H&E) of tumor tissue; format: in vivo, SD rats; details: 5 mg/kg i.v.
# Method: (§4) The excised solid tumors were fixed in 10% buffered formalin and embeddedin paraffin. For optical microscopic examinations, 4-μm sectioned tissues were stained with H&E. Immunohistochemical staining was performed with the avidin-biotin complex method using anti-PCNA antibodies. The immune reactions were visualized with 3,3′-diaminobenzidine and counterstained with Mayer's hematoxylin. A TUNEL assay was performed using an ApopTag PlusPeroxidase In Situ Apoptosis Detection kit (Intergen, Purchase, N.Y.) according to the manufacturer's instructions. Briefly, the slides were deparaffinized and treated with 20 μg/mL proteinase K at 37° C. for 15 min to enhance staining. After immersion 3% hydrogen peroxide to block the endogenous peroxidase, the slides were incubated with a reaction buffer containing terminal de-oxynucleotidyl transferase at 37° C. for 1 h. The slides were then incubated with a peroxidase-conjugated anti-digoxigenin antibody for 30 min, and the reaction products were visualized with a 0.03% 3,3′-diaminobenzidine solution containing 2 mM hydrogen peroxide. The slides were counterstained with 0.5% methyl green.
# RK3E-ras-Luc cells [12] = experiment: TUNEL assay on tumor sections; format: in vivo, SD rats; details: 5 mg/kg i.v.
# Method: as §4
# PCNA = experiment: Immunohistochemical staining for PCNA in tumor; format: in vivo, SD rats; details: 5 mg/kg i.v.
# Method: as §4
# CDK1 = details: from a report; read-out: CDK1 inhibitory activity IC50; cited from earlier work
pIC50 [2],pIC50 [3],"pIC50 ([4]; Homo sapiens, HCT-116, 72 h)",pIC50 (K562 human leukemia cell),pIC50 [5],pIC50 [6],pIC50 [7],Structure (SMILES),pIC50 (CDK2/cyclin E),inhibitory activity against kinase panel [1],further results
4.81,5.90,~6.52,6.25,5.94,5.96,6.30,"O=C1Nc2ccc([N+](=O)[O-])cc2/C1=C1/Nc2ccc(Cl)cc2C1=NO [Compound 12b, (2′Z, 3′E)-5′-Chloro-5-nitro-indirubin-3′-oxime]",7.63,negligible inhibitory activities,pIC50 [4]: 6.48
4.77,5.84,6.35,6.11,5.94,5.94,6.02,"O=C1Nc2ccc([N+](=O)[O-])cc2C1=C1Nc2ccc(Br)cc2C1=NO [Compound 2, 5′-Bromo-5-nitro-indirubin-3′-oxime, reference compound]",,,pIC50 (CDK1): 6.72

Structure (SMILES),pIC50 [2],pIC50 [3],"pIC50 ([4]; Homo sapiens, HCT-116, 72 h)",pIC50 (K562 human leukemia cell),pIC50 [5],pIC50 [6],pIC50 [7],pIC50 (CDK2/cyclin E),inhibitory activity against kinase panel [1],further results
"O=C1Nc2ccc([N+](=O)[O-])cc2/C1=C1/Nc2ccc(O)cc2C1=NO [Compound 11b, (2′Z, 3′E)-5′-Hydroxy-5-nitro-indirubin-3′-oxime]",,,,,,5.89,5.92,8.72,"weak inhibitory activity only against Aurora A, IKKβ and TrkA","pIC50 (CDK1/cyclin B): 7.89; pIC50 (IKKβ): 5.00; inhibition at 1 µM (TrkA; 1 μM, read-out: inhibitory activity against TrkA): 9%; pIC50 (TrkA; dose response curves, read-out: IC50 against TrkA): 5.40; pIC50 [8]: 5.48 to 6.70; body weight compared with control [9]: without loss of body weight; also recorded: no significant difference in body weight; luminescence intensity (indicator of tumor growth) (RK3E-ras-Luc cells [10]): significantly decreased; histological analysis of treated tumor (RK3E-ras-Luc cells [11]): extensive cell death; TUNEL-positive apoptotic cells compared with control tissue (RK3E-ras-Luc cells [12]): about 6.0 fold; expression level of PCNA compared with control (PCNA): decreased"
